{"source": "paper PMC10986598", "about": "“Investigating inhibitors of 1-deoxy-D-xylulose 5-phosphate synthase in a mouse model of UTI” (Microbiology Spectrum, 2024)", "key": {"UPEC strain CFT073": {"system": "UPEC strain CFT073", "test": "In vivo ascending UTI assay (prophylaxis)", "set-up": "species or system Escherichia coli in C3H/HeN mice", "details": "gentamicin 10 mg/kg IP 30 min prior to inoculation", "procedure": "Female mice were injected subcutaneously in the flank with 2.5 mg of MPA (150 mg/mL, diluted in sterile saline) 7 days prior to inoculation ([60]). Mice were dosed vaginally with 30 µL of sterile saline lavage fluid immediately prior to inoculation. The fluid was collected, placed on a slide, heat fixed, Gram stained, and assessed to determine the estrous cycle stage of each mouse as previously described ([61]).\nSix-week-old female C3H/HeN mice were inoculated with UPEC as previously described ([28]). Briefly, UPEC strain CFT073 (ATCC designation: BAA-2503) was streaked on LB agar from a frozen glycerol stock and grown overnight at 37°C. Following overnight incubation, three to five colonies were picked and subcultured into 10 mL of sterile LB, and the culture was incubated statically overnight at 37°C. The culture was diluted 1:1,000 (25 µL of culture into 25 mL of sterile LB) and incubated statically for 24 h at 37°C to promote the growth of bacteria with type-1 pili expression. The resulting 25 mL inoculum was centrifuged at 4,200 × g for 20 min at 4°C. The supernatant was removed, and the cell pellet was resuspended in 10 mL of sterile PBS. The OD600 was adjusted to 1.0 by the addition of PBS to give a cell density of approximately 4 × 10^7 to 1 × 10^8 CFUs per 50 µL, the volume of the inoculum. Cell counts were validated by plating a dilution of the inoculum solution and enumerating following overnight incubation.\nUrinary catheters were assembled by threading 30G needles with 0.28 mm inner diameter polyethylene tubing to create a soft tip. Catheter tips were dipped in lubricant immediately before inoculation. During catheterization, urine was aspirated from the bladder prior to inoculation with 50 µL of UPEC inoculum, prepared as described above. Mice were housed with their drug-dosed cohort and dosed intraperitoneally according to each experiment’s dosing regimen as shown in the figures. Dosing regimen for BAP trial 1 (Fig. 7b)consisted of IP administration of BAP (300 mg/kg) 30 min before inoculation; dosing regimen for BAP trial 2 (Fig. 7c) consisted of IP administration of BAP (600 mg/kg) 30 min before inoculation followed with IP doses of BAP (300 mg/kg) at 1 and 3 hpi; dosing regimen for BAP trial 3 and the pro-hpAP trial (Fig. 7d) consisted of IP administration of BAP (600 mg/kg) or pro-hpAP (60 mg/kg) 30 min before inoculation followed with IP doses of BAP (300 mg/kg) or pro-hpAP (30 mg/kg) at 1, 3, and 24 hpi; dosing regimen 4 (Fig. S3) consisted of IP administration of BAP (600 mg/kg) 30 min before inoculation followed with IP doses of BAP (300 mg/kg) at 1, 3, 6, 10, 22, 26, and 30 hpi. Gentamicin diluted in sterile PBS was used as a positive control and was administered to mice at 10 mg/kg IP 30 min prior to inoculation in all experiments.\nAfter 48 h, mice were anesthetized by isoflurane inhalation and sacrificed by cervical dislocation. Bladders were harvested, added to 1 mL sterile PBS, and homogenized with a hand-held homogenizer in a biosafety cabinet. Tissue homogenates were serially-diluted (five 10-fold dilutions), and 100 µL of each dilution was plated onto LB plates and enumerated after a 24 h incubation at 37°C, yielding an effective detection range of 1 × 10^2–150 × 10^8 CFU/mL. In a few cases, bacterial counts fell below the lower limit of detection or above the upper limit of detection and are reported as 0 CFU/mL or conservatively 200 × 10^8 CFU/mL, respectively."}, "[1]": {"test": "In vivo PK studies in CD-1 mice", "details": "for AUC: pro-hpAP 30 mg/kg IP; for Cmax / AUC(0-t): ip, 30 mg/kg; for AUC(0-t): read-out: AUC0-t", "procedure": "For pharmacokinetic analysis, both male (n = 2) and female (n = 2) CD1 mice were dosed with either BAP or pro-hpAP by intraperitoneal (IP) route or administration (100 mg/kg) and (30 mg/kg), respectively. Blood and tissue samples were collected at predetermined time points (0–6 h post-dose). Plasma was generated from blood by low-speed centrifugation (3,000 × g), and all samples were stored at −80°C until bioanalysis.\nNon-compartmental-analysis module in WinNonlin was used to assess blood pharmacokinetic parameters including max concentrations (Cmax), time to Cmax (Tmax), area under the curve (AUC), area extrapolated to infinity (AUC0–∞), and terminal half-life (t1/2). In addition, the tissue penetration index was measured as the ratio of AUCtissue to AUCplasma.\nTo quantify BAP and pro-hpAP, methanol containing 0.5 µM losartan as an internal standard was added 5 µL/µL plasma or 5 µL/mg tissue in microcentrifuge tubes. Tissue was further homogenized using a Spex Geno/Grinder with stainless steel beads for 3 min at 1,500 RPM. Homogenates from untreated animals were spiked with the analytes from 100 to 0.01 nmol/g tissue by serial dilution to generate a standard curve. Plasma and tissue homogenates were then vortexed and centrifuged (16,000 × g for 5 min at 4°C) to precipitate proteins. Supernatants were transferred to a 96 well plate and 2 µL was injected on a Accela 1250 LC coupled to a Vantage triple quadrupole mass spectrometer (Thermo Fisher Scientific Inc., Waltham MA). Samples were separated on an Agilent EclipsePlus C18 RRHD (1.8 µm) 2.1 × 100 mm column with mobile phases consisting of water +0.1% formic acid (A), and acetonitrile + 0.1% formic acid (B). […] Samples were introduced to the source through heated ion spray with the capillary temperature setting at 350°C, spray voltage of 4 kV and S-Lens RF of 51. Nitrogen was used as the sheath and auxiliary gas with the settings of 50 and 1 arbitrary units, respectively. For BAP, the instrument was operated in negative ion mode scanning for transitions of 179.1 > 63.1, 79.1 (BAP) and 420.9 > 179.1, 127.0 (losartan) which were acquired with collision energies setting of 17; 55 and 25; 41 CE, respectively. For pro-hpAP, the instrument was operated in positive ion mode scanning for transitions of 346.2 to 86.1 and 143.2 (pro-hpAP) and 422.9 to 207.1 and 180.1 (losartan) which were acquired with collision energies setting of 29; 17 and 37; 22 CE, respectively. Peaks were quantified with Xcalibur software."}, "[2]": {"details": "both sexes, CD1, mouse, in vivo, Bladder, single 30 mg/kg IP dose of pro-hpAP, analyte = labelled substance"}, "[3]": {"details": "both sexes, CD1, mouse, in vivo, Brain, single 30 mg/kg IP dose of pro-hpAP, analyte = labelled substance"}, "[4]": {"details": "both sexes, CD1, mouse, in vivo, Kidney, single 30 mg/kg IP dose of pro-hpAP, analyte = labelled substance"}}, "note": "Like-named read-outs stand apart in the source and are kept apart here."}
{"compound": "CNC(C)C1CCC(N)C(OC2C(N)CC(N)C(OC3OCC(C)(O)C(NC)C3O)C2O)O1", "note": "(centres unmarked) [gentamicin, reference compound]", "values": [{"measurement": "mice with bacterial burden below the limit of detection (LOD)", "setting": "UPEC strain CFT073", "value": "5 of 8"}]}
{"compound": "C#CCCOP(=O)(O)C(C)=O", "note": "[hpAP, homopropargyl acetylphosphonate]", "values": [{"measurement": "AUC", "setting": "[1]; bladder, analyte = labelled substance (pro-hpAP or released hpAP)", "value": "366 ± 31", "unit": "nmol·h/g"}, {"measurement": "Cmax", "setting": "[1]; [2]", "value": "586 ± 78", "unit": "µM"}, {"measurement": "AUC(0-t)", "setting": "[1]; [2]", "value": "366 ± 31", "unit": "µM·h"}, {"measurement": "Cmax", "setting": "[1]; [3]", "value": "2.18 ± 0.16", "unit": "µM"}, {"measurement": "AUC(0-t)", "setting": "[1]; [3]", "value": "1.87 ± 0.21", "unit": "µM·h"}, {"measurement": "Cmax", "setting": "[1]; [4]", "value": "50.2 ± 7.7", "unit": "µM"}, {"measurement": "AUC(0-t)", "setting": "[1]; [4]", "value": "16.3 ± 1.4", "unit": "µM·h"}, {"measurement": "Cmax", "setting": "[1]; both sexes, CD1, mouse, in vivo, Plasma, single 30 mg/kg IP dose of pro-hpAP, analyte = labelled substance (pro-hpAP or released hpAP)", "value": "110 ± 11", "unit": "µM"}, {"measurement": "AUC(0-t)", "setting": "[1]; both sexes, CD1, mouse, in vivo, Plasma, single 30 mg/kg IP dose of pro-hpAP, analyte = labelled substance", "value": "38.8 ± 2.7", "unit": "µM·h"}, {"measurement": "Tmax", "setting": "[1]; both sexes, CD1, mouse, in vivo, Kidney, single 30 mg/kg IP dose of pro-hpAP, analyte = labelled substance, read-out: Tmax", "value": 15, "unit": "min"}, {"measurement": "AUC", "setting": "[1]; both sexes, CD1, mouse, in vivo, plasma, analyte = labelled substance, read-out: AUC", "value": "38.8 ± 2.7", "unit": "µM·h"}, {"measurement": "AUC", "setting": "[1]; brain, analyte = labelled substance", "value": "1.87 ± 0.21", "unit": "nmol·h/g"}, {"measurement": "AUC", "setting": "[1]; kidney, analyte = labelled substance", "value": "16.3 ± 1.4", "unit": "nmol·h/g"}]}
